Data from US10071042B2, “External dermatological agent for anti-ageing” (Hayashibara Co., Ltd., priority 2014, dated 2018).
Marks after values point to notes of the source that are not given here.

Legend:
[1] = Photostability under fluorescent lamp, HPLC residual percentage (Experiment 10); type: physicochemical; details: fluorescent lamp about 4,000 lux, 28° C.
Procedure: To 25 mg of each of the test substances in Table 13 was added each of Mcllvain buffers adjusted to different pHs to give a total volume of 50 mL and distributed to transparent glass screw bottles (5 mL) with plastic screw caps equal to the number of the test substances by 2.0 mL. Under a fluorescent lamp with about 4,000 lux at 28° C., the glass screw bottles were allowed to lay along. Sodium adenosine N1-oxide 5′-phosphate and 5′-glucosyl adenosine N1-oxide were respectively analyzed on HPLC at the initiation of the test and at eight weeks after initiating the experiment, and at the initiation of the test and at two weeks intervals up to eight weeks after the initiation, followed by taking out one of the bottles for HPLC analysis. The analysis was repeated three times and the average residual percentage of each test substance was calculated based on the area ratio against the peak area for each test substance upon HPLC chromatogram at the initiation of the experiment. […] Equation: Residual percentage (%) of test substance=[(Average peak area after a prescribed time lapse at respective pHs for each test substance)/(Average peak area at the initiation of experiment at respective pHs for each test substance)]×100

[2] = system: human epidermoid carcinoma cell line A-431; assay: Tight-junction function, lucifer yellow transmittance (Experiments 2 and 8); type: cell-based; details: for Relative transmittance of lucifer yellow (%): control = 100%
Source text: A human epidermoid carcinoma cell line A-431 was suspended in a media, supplemented with any of the test substances disclosed in Table 4 and having respective concentrations as indicated in the table, to give a cell concentration of 1×10^5 cells/mL, and each cell suspension was placed in an insert cup for a 12-well culture plate by two milliliters per well, followed by culturing the cells until reaching a confluent state through over the bottom surface of each well. The inner and the outer cup volumes were adjusted to give two milliliters while checking both the liquid levels of the cups were constant, and lucifer yellow as a model for permeating substance, commercialized by Life Technologies Corporation, CA, USA, was added to each inner cup to give a final concentration of 100 μM. Thereafter, the fluorescent intensities of lucifer yellow in the culture media in both the inner and the outer cups were measured, followed by calculating the percentage of the fluorescent intensity of the outer cup against that of the sum of the outer and the inner cups for use as a transmittance of lucifer yellow with the following equation. Equation: Transmittance of lucifer yellow (%)={(Absorbance of a liquid outside of an insert cup)/[(Absorbance of a liquid inside of the insert cup)+(Absorbance of the liquid outside of the insert cup)]}×100
There was provided a control system prepared similarly as above except for not adding any of the test substances, and the transmittance of lucifer yellow was regarded as 100% for evaluating the reduction of transmittance due to the reinforcement of the function of tight junction, based on the following equation. Equation: Relative transmittance (Relative percentage (%)) of lucifer yellow=[(Transmittance of a sample with any one of test substances)/(Transmittance of control)]×100
The experiment was repeated three times, and the data was subjected to the Dunnett's multiple comparisons with control. The symbol “*” means a level of significance of p<0.01.
Except for adding the test substances listed in Table 11 at respective concentrations shown in the table, experiments were respectively conducted in accordance with the methods in Experiment 2 disclosed in the specification to examine the effect of the combination use with ethylenediaminetetraacetate used as a preservative for cosmetics on the action of reinforcing the function of tight junction by sodium adenosine N1-oxide 5′-phosphate. A control system was provided and similarly treated as above except for not adding any test substance. The reduction rate of relative transmittance of lucifer yellow against that of control based on the following equation. Equation: Reduction rate of relative transmittance of lucifer yellow (%)=100−[(Transmittance of a sample with any one of test substances)/(Transmittance of control)]×100

[3] = system: normal human dermal fibroblasts (NHDF); assay: Number of cells, cytometry kit (Experiment 5); type: cell-based; details: control = 100%
Source text: The number of cells was counted with a cytometry kit (or a staining method) and the variation of cell number when added with any one of the test substances, based on the value of control being regarded as 100%.

[4] = system: normal human epidermal keratinocytes; assay: Production level of cornified envelope, absorbance 310 nm (Experiments 1-2 and 7); type: cell-based; details: for Production level (%) of cornified envelope: control = 100%
Procedure: Normal human epidermal keratinocytes were cultured similarly as in Experiment 1-1, except for adding the test substances listed in Table 2 at prescribed concentrations to the cells. The resulting cultured cells were washed once with phosphate buffered saline (PBS), followed by scrapping off the cells adhered to each culture plate by adding 0.5 mL of PBS to each well of the plates. The cell suspensions thus obtained were added with 10% sodium lauryl sulfate solution in a volume of ¼ of each of the suspension volumes, followed by stirring and freezing the resulting mixtures at −80° C. After thawing, the resulting mixtures were centrifuged at 12,000×g for 15 min, followed by collecting the cell precipitates which were then washed once with phosphate buffered saline containing 2% sodium lauryl sulfate. The resulting mixtures were centrifuged at 12,000×g for 15 min, followed by collecting the cells and suspending the collected cells with phosphate buffered saline containing 2% sodium lauryl sulfate and 20 mM dithiothreitol. The resulting cell suspensions were boiled in a boiling water bath for one hour and measured for absorbance at a wavelength of 310 nm to determine the production level of cornified envelope for each test system added with any of the test substances. A control system was provided similarly as above except for not adding any one of the test substances to the system, and determined for absorbance at a wavelength of 310 nm similarly as in the above to be regarded as 100%. The production level of cornified envelope for each test substance was relatively evaluated based on the following equation. Equation: Production level of cornified envelope (Relative value (%))=[(Absorbance of a sample with any one of test substances)/(Absorbance of Control)]×100
The experiment was repeated three times, and the data was subjected to the Dunnett's multiple comparisons with Control. The symbol “*” means a level of significance of p<0.01.
Except for adding the test substances listed in Tables 8 and 9 at respective concentrations shown in the tables, experiments were respectively conducted in accordance with the methods in Experiments 1-2 and 1-3 disclosed in the specification to examine the effect of the combination use of epigallocatechin gallate, which is used as an antioxidant for cosmetics, and sodium adenosine N1-oxide 5′-phosphate on the action of accelerating the cornified-envelope production and the action of enhancing the transglutaminase activity of sodium adenosine N1-oxide 5′-phosphate. A control system was provided and similarly treated as above except for not adding any test substance and was determined for both the increase rates of cornified-envelope production level and the transglutaminase activity, based on the following equations. Equation: Increase rate of cornified envelope production level (%)={[(Absorbance of a sample with any one of test substances)/(Absorbance of control)]×100}−100 Equation: Increase rate of transglutaminase (%)={[(Absorbance of a sample with any one of test substances)/(Absorbance of control)]×100}−100

[5] = pH 4 to 5, at the initiation of experiment
[6] = pH 6 to 7, at the initiation of experiment
[7] = pH 8 to 9, at the initiation of experiment

Row | Molecule | Residual percentage (%) [1, 5] | Residual percentage (%) ([1]; pH 4 to 5, eight weeks) | Residual percentage (%) [1, 6] | Residual percentage (%) ([1]; pH 6 to 7, eight weeks) | Residual percentage (%) [1, 7] | Residual percentage (%) ([1]; pH 8 to 9, eight weeks) | Relative transmittance of lucifer yellow (%) ([2]; 200 μM) | Relative transmittance of lucifer yellow (%) ([2]; 400 μM) | Number of cells (%) ([3]; 200 μM) | Number of cells (%) ([3]; 400 μM) | Number of cells (%) ([3]; 800 μM) | further results
1 | Nc1c2ncn([C@@H]3O[C@H](CO)[C@@H](O)[C@H]3O)c2nc[n+]1[O-] [Adenosine N1-oxide, adenosine N1-oxide] | 100.0% | 24.6% | 100.0% | 66.2% | 100.0% | 63.1% | – | – | – | – | – | Residual percentage (%) ([1]; pH 4 to 5, eight weeks, listed as adenosine N1-oxide): about 25%; Residual percentage (%) ([1]; pH 4 to 5, four weeks): 47.2%; Residual percentage (%) ([1]; pH 4 to 5, six weeks): 25.2%; Residual percentage (%) ([1]; pH 4 to 5, two weeks): 68.8%; Residual percentage (%) ([1]; pH 6 to 7, four weeks): 81.6%; Residual percentage (%) ([1]; pH 6 to 7, six weeks): 71.3%; Residual percentage (%) ([1]; pH 6 to 7, two weeks): 90.6%; Residual percentage (%) ([1]; pH 8 to 9, four weeks): 77.2%; Residual percentage (%) ([1]; pH 8 to 9, six weeks): 68.2%; Residual percentage (%) ([1]; pH 8 to 9, two weeks): 83.7%; Relative transmittance of lucifer yellow (%) ([2]; 10 μM): 71.6* %; Relative transmittance of lucifer yellow (%) ([2]; 20 μM): 71.3* %; Number of cells (%) ([3]; 5 μM): 98.5%; Number of cells (%) ([3]; 10 μM): 94.6%; Number of cells (%) ([3]; 20 μM): 94.4%; Production level (%) of cornified envelope ([4]; 25 μM): 178.7* %; Production level (%) of cornified envelope ([4]; 25 μM, listed as adenosine N-1 oxide): about 180%
2 | Nc1ncnc2c1ncn2[C@@H]1O[C@H](COP(=O)(O)O)[C@@H](O)[C@H]1O [Adenosine 5′-phosphate, reference compound] | – | – | – | – | – | – | 90.6% | 81.6% | 93.7% | 89.9% | 96.0% | Production level (%) of cornified envelope ([4]; 400 μM): 136.5%
3 | Nc1c2ncn([C@@H]3O[C@H](COP(=O)([O-])O)[C@@H](O)[C@H]3O)c2nc[n+]1[O-].[Na+] [Sodium adenosine N1-oxide 5′-phosphate, sodium adenosine N1-oxide 5′-phosphate] | 100.0% | 93.0% | 100.0% | 88.8% | 100.0% | 96.9% | – | – | – | – | – | Reduction rate of relative transmittance of lucifer yellow (%) ([2]; 10 μM, single use, reduction against control): 21.6%; Relative transmittance of lucifer yellow (%) ([2]; 10 μM): 78.4%; reduction of lucifer yellow transmittance ([2]; 20 μM, compared to control): about 60%; Relative transmittance of lucifer yellow (%) ([2]; 20 μM): 62.3* %; Number of cells (%) ([3]; 5 μM): 99.9%; Number of cells (%) ([3]; 10 μM): 99.5%; Number of cells (%) ([3]; 20 μM): 92.2%; Increase rate of cornified envelope formation level (%) ([4]; 15 μM, single use, increase over control): 2.8%; Production level (%) of cornified envelope ([4]; 25 μM): 178.7* %; Production level (%) of cornified envelope ([4]; 25 μM, listed as adenosine N1-oxide 5′-phosphate): about 180%
4 | 5′-α-glucosyl adenosine N1-oxide [5′-α-Glucosyladenosine N1-oxide] | 100.0% | 9.8% | 100.0% | 34.3% | 100.0% | 24.0% | 97.1% | 96.8% | 108.1% | 102.1% | 102.6% | Residual percentage (%) ([1]; pH 4 to 5, eight weeks, listed as 5′-glucosyl adenosine N1-oxide): about 10%; Residual percentage (%) ([1]; pH 4 to 5, four weeks): 27.3%; Residual percentage (%) ([1]; pH 4 to 5, six weeks): 9.7%; Residual percentage (%) ([1]; pH 4 to 5, two weeks): 51.7%; Residual percentage (%) ([1]; pH 6 to 7, four weeks): 57.7%; Residual percentage (%) ([1]; pH 6 to 7, six weeks): 40.8%; Residual percentage (%) ([1]; pH 6 to 7, two weeks): 79.1%; Residual percentage (%) ([1]; pH 8 to 9, four weeks): 47.8%; Residual percentage (%) ([1]; pH 8 to 9, six weeks): 35.4%; Residual percentage (%) ([1]; pH 8 to 9, two weeks): 70.7%; Production level (%) of cornified envelope ([4]; 600 μM): 148.8* %
5 | 3′-α-glucosyl adenosine N1-oxide [3′-α-Glucosyladenosine N1-oxide] | – | – | – | – | – | – | 112.3% | 102.3% | 103.8% | 104.5% | 97.4% | Production level (%) of cornified envelope ([4]; 200 μM): 141.4* %
6 | Nc1ncnc2c1ncn2[C@@H]1O[C@H](CO)[C@@H](O)[C@H]1O [Adenosine, reference compound] | – | – | – | – | – | – | 77.1* % | 67.4* % | 93.5% | 87.4% | 91.2% | Production level (%) of cornified envelope ([4]; 400 μM): 101.7%
7 | 3′-α-Glucosyladenosine [reference compound] | – | – | – | – | – | – | 94.5% | 94.8% | 98.9% | 101.1% | 107.2% | Production level (%) of cornified envelope ([4]; 800 μM): 104.2%
8 | 5′-α-Glucosyladenosine [reference compound] | – | – | – | – | – | – | 94.2% | 82.3% | 104.0% | 103.4% | 93.4% | –
